{
  "source": "paper PMC5218480",
  "about": "(PLoS ONE, 2017)",
  "system": "MV-4-11 cells",
  "test": "Gene expression microarray analysis (Affymetrix PrimeView) and GSEA",
  "assay_type": "cell-based, human",
  "set-up": "RFU PODN (11730768_x_at) / Fold change /veh PODN (11730768_x_at) / RFU LINC00158 (11744669_a_at) / Fold change /veh LINC00158 (11744669_a_at) / RFU DUSP10 (11751237_a_at) / Fold change /veh DUSP10 (11751237_a_at) / RFU ID3 (11757404_x_at) / Fold change /veh ID3 (11757404_x_at) / RFU PLEKHG5 (11737974_s_at) / Fold change /veh PLEKHG5 (11737974_s_at) / RFU LRRC4B (11730491_at) / Fold change /veh LRRC4B (11730491_at) / RFU GIMAP4 (11747438_a_at) / Fold change /veh GIMAP4 (11747438_a_at) / RFU KRT8 (11758183_x_at) / Fold change /veh KRT8 (11758183_x_at) / RFU CNN1 (11734310_a_at) / Fold change /veh CNN1 (11734310_a_at) / RFU VPS37D (11726825_at) / Fold change /veh VPS37D (11726825_at) / RFU C10orf10 (11716522_x_at) / Fold change /veh C10orf10 (11716522_x_at) / RFU KIR2DL2 /// KIR2DL4 /// KIR2DL5A /// KIR2DL5B /// KIR2DS1 /// KIR2DS2 /// KIR2DS3 /// KIR2DS4 /// KIR3DL3 /// KIR3DL3 /// KIR3DS1 (11738374_at) / Fold change /veh KIR2DL2 /// KIR2DL4 /// KIR2DL5A /// KIR2DL5B /// KIR2DS1 /// KIR2DS2 /// KIR2DS3 /// KIR2DS4 /// KIR3DL3 /// KIR3DL3 /// KIR3DS1 (11738374_at) / RFU C1QL1 (11718748_at) / Fold change /veh C1QL1 (11718748_at) / RFU TMPRSS4 (11747572_a_at) / Fold change /veh TMPRSS4 (11747572_a_at) / RFU HAMP (11756126_x_at) / Fold change /veh HAMP (11756126_x_at) / RFU RNFT2 (11725882_a_at) / Fold change /veh RNFT2 (11725882_a_at) / RFU NR4A2 (11747474_a_at) / Fold change /veh NR4A2 (11747474_a_at) / RFU ABCC12 (11746883_a_at) / Fold change /veh ABCC12 (11746883_a_at) / RFU TMEM136 (11760407_x_at) / Fold change /veh TMEM136 (11760407_x_at) / RFU CLDN22 /// WWC2 (11732394_at) / Fold change /veh CLDN22 /// WWC2 (11732394_at) / RFU HLA-DPB1 (11760878_x_at) / Fold change /veh HLA-DPB1 (11760878_x_at) / RFU SPINT1 (11716480_a_at) / Fold change /veh SPINT1 (11716480_a_at) / RFU GAP43 (11754022_s_at) / Fold change /veh GAP43 (11754022_s_at) / RFU A4GNT (11735810_at) / Fold change /veh A4GNT (11735810_at) / RFU PRB3 (11715151_x_at) / Fold change /veh PRB3 (11715151_x_at) / RFU TUBB4B (11761932_at) / Fold change /veh TUBB4B (11761932_at) / RFU CAPN14 (11732068_a_at) / Fold change /veh CAPN14 (11732068_a_at) / RFU TMCC2 (11721928_a_at) / Fold change /veh TMCC2 (11721928_a_at) / RFU IRGQ (11745062_a_at) / Fold change /veh IRGQ (11745062_a_at) / RFU FAM174B (11720279_a_at) / Fold change /veh FAM174B (11720279_a_at) / RFU TMPRSS4 (11748680_a_at) / Fold change /veh TMPRSS4 (11748680_a_at) / RFU FAM212B (11763350_a_at) / Fold change /veh FAM212B (11763350_a_at) / RFU PLEKHG5 (11743358_a_at) / Fold change /veh PLEKHG5 (11743358_a_at) / RFU ZSCAN30 (11745921_a_at) / Fold change /veh ZSCAN30 (11745921_a_at) / RFU CMKLR1 (11741424_a_at) / Fold change /veh CMKLR1 (11741424_a_at) / RFU LOC101060620 /// MAPK8IP1 (11723275_at) / Fold change /veh LOC101060620 /// MAPK8IP1 (11723275_at) / RFU SPTSSB (11747773_x_at) / Fold change /veh SPTSSB (11747773_x_at) / RFU PRSS12 (11739890_at) / Fold change /veh PRSS12 (11739890_at) / RFU BIN1 (11741810_x_at) / Fold change /veh BIN1 (11741810_x_at) / RFU WNT11 (11732464_a_at) / Fold change /veh WNT11 (11732464_a_at) / RFU C10orf10 (11716521_a_at) / Fold change /veh C10orf10 (11716521_a_at) / RFU C5orf56 (11738089_at) / Fold change /veh C5orf56 (11738089_at) / RFU CYB561 (11721691_x_at) / Fold change /veh CYB561 (11721691_x_at) / RFU ANKRD19P (11752326_a_at) / Fold change /veh ANKRD19P (11752326_a_at) / RFU OR2T12 /// OR2T33 /// OR2T8 (11738714_s_at) / Fold change /veh OR2T12 /// OR2T33 /// OR2T8 (11738714_s_at) / RFU VCAN (11748164_a_at) / Fold change /veh VCAN (11748164_a_at) / RFU JSRP1 (11732532_at) / Fold change /veh JSRP1 (11732532_at) / RFU KRTAP10-11 (11738290_x_at) / Fold change /veh KRTAP10-11 (11738290_x_at) / RFU MYO3A (11730013_a_at) / Fold change /veh MYO3A (11730013_a_at) / RFU EBF3 (11725865_a_at) / Fold change /veh EBF3 (11725865_a_at) / RFU CAMK2N1 (11719241_x_at) / Fold change /veh CAMK2N1 (11719241_x_at) / RFU C5orf56 (11738088_a_at) / Fold change /veh C5orf56 (11738088_a_at) / RFU OLFML3 (11715873_a_at) / Fold change /veh OLFML3 (11715873_a_at) / RFU LOC100653217 /// NTM (11731650_a_at) / Fold change /veh LOC100653217 /// NTM (11731650_a_at) / RFU MAPK11 (11762145_a_at) / Fold change /veh MAPK11 (11762145_a_at) / RFU FIZ1 (11724087_x_at) / Fold change /veh FIZ1 (11724087_x_at) / RFU OASL (11726364_x_at) / Fold change /veh OASL (11726364_x_at) / RFU SOX15 (11748057_x_at) / Fold change /veh SOX15 (11748057_x_at) / RFU CD79A (11719716_a_at) / Fold change /veh CD79A (11719716_a_at) / RFU HIST1H1D (11736915_at) / Fold change /veh HIST1H1D (11736915_at) / RFU CASKIN2 (11723855_a_at) / Fold change /veh CASKIN2 (11723855_a_at) / RFU LOC730098 (11760151_x_at) / Fold change /veh LOC730098 (11760151_x_at) / RFU OR4N2 (11742367_at) / Fold change /veh OR4N2 (11742367_at) / RFU PRRT2 (11749266_a_at) / Fold change /veh PRRT2 (11749266_a_at) / RFU SNX32 (11753110_a_at) / Fold change /veh SNX32 (11753110_a_at) / RFU CDHR5 (11726645_a_at) / Fold change /veh CDHR5 (11726645_a_at) / RFU RCAN1 (11760418_a_at) / Fold change /veh RCAN1 (11760418_a_at) / RFU FAM167A (11723789_a_at) / Fold change /veh FAM167A (11723789_a_at) / RFU FAM26E (11764081_at) / Fold change /veh FAM26E (11764081_at) / RFU ISYNA1 (11749810_s_at) / Fold change /veh ISYNA1 (11749810_s_at) / RFU ACY1 (11761880_at) / Fold change /veh ACY1 (11761880_at) / RFU 11764098_at / Fold change /veh 11764098_at / RFU SAMD14 (11745864_x_at) / Fold change /veh SAMD14 (11745864_x_at) / RFU NPB (11741838_a_at) / Fold change /veh NPB (11741838_a_at) / RFU TMPRSS6 (11731388_a_at) / Fold change /veh TMPRSS6 (11731388_a_at) / RFU KRTAP10-2 (11738614_at) / Fold change /veh KRTAP10-2 (11738614_at) / RFU ARHGAP8 /// PRR5-ARHGAP8 (11727945_x_at) / Fold change /veh ARHGAP8 /// PRR5-ARHGAP8 (11727945_x_at) / RFU KRTAP5-7 /// NADSYN1 (11734609_at) / Fold change /veh KRTAP5-7 /// NADSYN1 (11734609_at) / RFU RASL12 (11751679_a_at) / Fold change /veh RASL12 (11751679_a_at) / RFU CDKN2B (11736163_a_at) / Fold change /veh CDKN2B (11736163_a_at) / RFU PRF1 (11729649_at) / Fold change /veh PRF1 (11729649_at) / RFU, ZNF638 /// ZNF638-IT1 / Fold change vs veh, ZNF638 /// ZNF638-IT1 / RFU, PANK3 / Fold change vs veh, PANK3 / RFU, SH3YL1 / Fold change vs veh, SH3YL1 / RFU, ZEB2 / Fold change vs veh, ZEB2 / RFU, NRIP1 / Fold change vs veh, NRIP1 / RFU, PTTG1IP / Fold change vs veh, PTTG1IP / RFU, CAPN2 / Fold change vs veh, CAPN2 / RFU, MED14 / Fold change vs veh, MED14 / RFU, SNORA58 / Fold change vs veh, SNORA58 / RFU, C1orf63 / Fold change vs veh, C1orf63 / RFU, LRRFIP1 / Fold change vs veh, LRRFIP1 / RFU, NDUFAF7 / Fold change vs veh, NDUFAF7 / RFU, SLC12A2 / Fold change vs veh, SLC12A2 / RFU, IBTK / Fold change vs veh, IBTK / RFU, ESF1 / Fold change vs veh, ESF1 / Fold change vs veh, TMEM50B / RFU, TAOK1 / Fold change vs veh, TAOK1 / RFU, ACBD3 / Fold change vs veh, ACBD3 / RFU, TMA16 / Fold change vs veh, TMA16 / RFU, RWDD3 / Fold change vs veh, RWDD3 / RFU, BCAT1 / Fold change vs veh, BCAT1 / RFU, EDEM3 / Fold change vs veh, EDEM3 / RFU, TMEM33 / Fold change vs veh, TMEM33 / RFU, WDR75 / Fold change vs veh, WDR75 / RFU, AHCTF1 / Fold change vs veh, AHCTF1 / RFU, TFRC / Fold change vs veh, TFRC / RFU, ZDHHC17 / Fold change vs veh, ZDHHC17 / RFU, NOM1 / Fold change vs veh, NOM1 / RFU, ARL8B / Fold change vs veh, ARL8B / RFU, ZBTB11 / Fold change vs veh, ZBTB11 / RFU, TAMM41 / Fold change vs veh, TAMM41 / RFU, KIAA1704 /// LOC100996395 / Fold change vs veh, KIAA1704 /// LOC100996395 / RFU, ING1 / Fold change vs veh, ING1 / RFU, TRMT61B / Fold change vs veh, TRMT61B / RFU, FUBP3 / Fold change vs veh, FUBP3 / RFU, TP53 / Fold change vs veh, TP53 / RFU, TNKS2 / Fold change vs veh, TNKS2 / RFU, ZFP14 / Fold change vs veh, ZFP14 / RFU, ACTR2 / Fold change vs veh, ACTR2 / RFU, PPP3R1 / Fold change vs veh, PPP3R1 / RFU, PIK3R1 / Fold change vs veh, PIK3R1 / RFU, HNRNPA1 / Fold change vs veh, HNRNPA1 / RFU, RNF170 / Fold change vs veh, RNF170 / RFU, ZNF28 / Fold change vs veh, ZNF28 / RFU, RNGTT / Fold change vs veh, RNGTT / RFU, OGT / Fold change vs veh, OGT / RFU, BRD1 / Fold change vs veh, BRD1 / RFU, MARS / Fold change vs veh, MARS / RFU, ZNF655 / Fold change vs veh, ZNF655 / RFU, FAHD1 / Fold change vs veh, FAHD1 / RFU, BDP1 / Fold change vs veh, BDP1 / RFU, LRRCC1 / Fold change vs veh, LRRCC1 / RFU, ARID1A / Fold change vs veh, ARID1A / RFU, ZNF146 / Fold change vs veh, ZNF146 / RFU, ZNF330 / Fold change vs veh, ZNF330 / RFU, GPN3 / Fold change vs veh, GPN3 / RFU, C9orf123 / Fold change vs veh, C9orf123 / RFU, N4BP2L2 / Fold change vs veh, N4BP2L2 / RFU, ARFIP1 / Fold change vs veh, ARFIP1 / RFU, FAM179B / Fold change vs veh, FAM179B / RFU, BCL10 / Fold change vs veh, BCL10 / RFU, UHRF1BP1L / Fold change vs veh, UHRF1BP1L / RFU, BET1 / Fold change vs veh, BET1 / RFU, CNOT2 / Fold change vs veh, CNOT2 / RFU, ZNF268 / Fold change vs veh, ZNF268 / Fold change vs veh, ZNF507 / RFU, DGCR2 / Fold change vs veh, DGCR2 / RFU, WDSUB1 / Fold change vs veh, WDSUB1 / Fold change vs veh, HSP90B1 /// MIR3652 / RFU, ADSS / Fold change vs veh, ADSS / RFU, GK / Fold change vs veh, GK / RFU, ZNF148 / Fold change vs veh, ZNF148 / RFU, TAF9 / Fold change vs veh, TAF9 / RFU, SLC1A5 / Fold change vs veh, SLC1A5 / RFU, SLMO2 / Fold change vs veh, SLMO2 / RFU, ABCC4 / Fold change vs veh, ABCC4 / RFU, LOC101060439 /// RAP1B / Fold change vs veh, LOC101060439 /// RAP1B / RFU, RFX7 / Fold change vs veh, RFX7 / RFU, GTPBP10 / Fold change vs veh, GTPBP10 / RFU, CNEP1R1 / Fold change vs veh, CNEP1R1 / RFU, BIVM-ERCC5 /// ERCC5 / Fold change vs veh, BIVM-ERCC5 /// ERCC5 / RFU, ILF3 / Fold change vs veh, ILF3 / RFU 11762660_at / Fold change /veh 11762660_at / RFU VCAN (11757783_s_at) / Fold change /veh VCAN (11757783_s_at) / RFU DDX43 (11728927_at) / Fold change /veh DDX43 (11728927_at) / RFU KRT8 (11758188_x_at) / Fold change /veh KRT8 (11758188_x_at) / RFU NKD1 (11759106_at) / Fold change /veh NKD1 (11759106_at) / RFU SRD5A1 (11742802_a_at) / Fold change /veh SRD5A1 (11742802_a_at) / RFU TPSAB1 /// TPSB2 (11721975_s_at) / Fold change /veh TPSAB1 /// TPSB2 (11721975_s_at) / RFU GSTM3 (11746129_a_at) / Fold change /veh GSTM3 (11746129_a_at) / RFU IL23R (11737362_x_at) / Fold change /veh IL23R (11737362_x_at) / RFU TMEM51 (11727254_a_at) / Fold change /veh TMEM51 (11727254_a_at) / RFU PIWIL2 (11732686_x_at) / Fold change /veh PIWIL2 (11732686_x_at) / RFU ORM1 (11744905_x_at) / Fold change /veh ORM1 (11744905_x_at) / RFU CCDC152 (11743942_at) / Fold change /veh CCDC152 (11743942_at) / RFU ECM1 (11717891_a_at) / Fold change /veh ECM1 (11717891_a_at) / RFU IL23R (11748794_a_at) / Fold change /veh IL23R (11748794_a_at) / RFU TNFAIP8L3 (11732012_x_at) / Fold change /veh TNFAIP8L3 (11732012_x_at) / RFU MBOAT4 (11741988_at) / Fold change /veh MBOAT4 (11741988_at) / RFU 11764193_at / Fold change /veh 11764193_at / RFU TMEM53 (11763286_at) / Fold change /veh TMEM53 (11763286_at) / RFU MAGEB2 (11727129_at) / Fold change /veh MAGEB2 (11727129_at) / RFU TMEM200A (11744735_a_at) / Fold change /veh TMEM200A (11744735_a_at) / RFU CCDC152 (11751479_a_at) / Fold change /veh CCDC152 (11751479_a_at) / RFU FAM211A (11726209_a_at) / Fold change /veh FAM211A (11726209_a_at) / RFU RGS16 (11746705_a_at) / Fold change /veh RGS16 (11746705_a_at) / RFU VCAN (11755009_s_at) / Fold change /veh VCAN (11755009_s_at) / RFU RHOB (11743442_s_at) / Fold change /veh RHOB (11743442_s_at) / RFU RGS16 (11720943_a_at) / Fold change /veh RGS16 (11720943_a_at) / RFU RGS16 (11720944_at) / Fold change /veh RGS16 (11720944_at) / RFU, VPS4B / Fold change vs veh, VPS4B / RFU, CREB1 / Fold change vs veh, CREB1 / RFU, DNAJC13 / Fold change vs veh, DNAJC13 / RFU, GNAQ / Fold change vs veh, GNAQ / RFU, CDK5R1 / Fold change vs veh, CDK5R1 / RFU, ZRANB3 / Fold change vs veh, ZRANB3 / RFU, CUL4A / Fold change vs veh, CUL4A / RFU, CCNY / Fold change vs veh, CCNY / RFU, UFL1 / Fold change vs veh, UFL1 / RFU, COG3 / Fold change vs veh, COG3 / RFU, DIAPH2 / Fold change vs veh, DIAPH2 / RFU, SKA2 / Fold change vs veh, SKA2 / RFU, AFF3 / Fold change vs veh, AFF3 / RFU, LMF1 / Fold change vs veh, LMF1 / RFU, IPO11 / Fold change vs veh, IPO11 / RFU, DFFB / Fold change vs veh, DFFB / RFU, FOXP1 / Fold change vs veh, FOXP1 / RFU, CARD8 / Fold change vs veh, CARD8 / RFU, STRN3 / Fold change vs veh, STRN3 / RFU, ADK / Fold change vs veh, ADK / RFU, RASSF2 / Fold change vs veh, RASSF2 / RFU, WIPF1 / Fold change vs veh, WIPF1 / RFU, LARP1B / Fold change vs veh, LARP1B / RFU, RASA1 / Fold change vs veh, RASA1 / RFU, RB1 / Fold change vs veh, RB1 / RFU, PPFIA1 / Fold change vs veh, PPFIA1 / RFU, MAT2A / Fold change vs veh, MAT2A / RFU, CCT5 / Fold change vs veh, CCT5 / RFU, WDR92 / Fold change vs veh, WDR92 / RFU, CUX1 / Fold change vs veh, CUX1 / RFU, TTC7A / Fold change vs veh, TTC7A / RFU, TMEM135 / Fold change vs veh, TMEM135 / RFU, DEPTOR / Fold change vs veh, DEPTOR / RFU, CPM / Fold change vs veh, CPM / RFU, DNAJB6 / Fold change vs veh, DNAJB6 / RFU, CACNA2D3 / Fold change vs veh, CACNA2D3 / RFU, DTX4 / Fold change vs veh, DTX4 / RFU, TFCP2 / Fold change vs veh, TFCP2 / RFU, GMCL1 /// GMCL1P1 / Fold change vs veh, GMCL1 /// GMCL1P1 / RFU, AEBP2 / Fold change vs veh, AEBP2 / RFU, SNHG1 /// SNORD22 /// SNORD25 /// SNORD26 /// SNORD27 /// SNORD28 /// SNORD29 /// SNORD31 / Fold change vs veh, SNHG1 /// SNORD22 /// SNORD25 /// SNORD26 /// SNORD27 /// SNORD28 /// SNORD29 /// SNORD31 / Fold change (Aza/veh), C12orf56 (ProbeSet 11735607_a_at) / Fold change (ACY-1035/veh), C12orf56 (ProbeSet 11735607_a_at) / Fold change (Aza/veh), FGFR1OP (ProbeSet 11751329_s_at) / Fold change (ACY-1035/veh), FGFR1OP (ProbeSet 11751329_s_at) / Fold change (Aza/veh), VPS36 (ProbeSet 11739960_a_at) / Fold change (ACY-1035/veh), VPS36 (ProbeSet 11739960_a_at) / RFU SYPL1 (11715823_x_at) / Fold change /veh SYPL1 (11715823_x_at) / RFU IGFBP7 (11715501_s_at) / Fold change /veh IGFBP7 (11715501_s_at) / RFU REEP3 (11722064_at) / Fold change /veh REEP3 (11722064_at) / RFU IGLL1 (11728026_x_at) / Fold change /veh IGLL1 (11728026_x_at): dose or concentration left out as unconfirmed",
  "conditions": "MV-4-11 cells, 48 hours",
  "data": [
    {"smiles": "Nc1ccc(-c2cccs2)cc1NC(=O)c1ccc2c(c1)cc(C1CC1)n2CCN1CCOCC1", "note": "[ACY-1035]", "values": [
      {"measurement": "Fold change /veh KRT8 (11758183_x_at)", "result": 1.06}
    ]}
  ]
}
